In patent publication US8865748B2, “Compounds and compositions for stabilizing hypoxia inducible factor-2 alpha as a method for treating cancer” (Akebia Therapeutics Inc., priority 2011, dated 2014):

Test system: B16F10 melanoma tumors
Experiment: Murine melanoma tumor model (B16F10 in C57BL/6 mice)
Format: in vivo
Details: for tumor growth: FIG. 14A
Method: Mice were injected with 1×10^5 B16F10 murine melanoma cells murine subcutaneously on the left flank. Once tumors become palpable (approximately 5 days), mice were randomly allocated to receive treatment with either: 20% polyethylene glycol (PEG) in 5% […] (vehicle control for the disclosed HIF-2α stabilizer) and PBS (vehicle control for GM-CSF), 20% PEG and GM-CSF (100 ng per mouse in a 50 μL volume), the disclosed HIF-2α stabilizer (17.5 mg/kg in a 100 μL volume) and PBS, or the disclosed HIF-2α stabilizer and GM-CSF (same doses). The PBS and GM-CSF were administered intratumorally, while the 20% PEG and the disclosed HIF-2α stabilizer were administered intraperitoneally. Mice were treated 3 times per week until tumors reached a size of 20 mm in any dimension (approximately 2.5 weeks), at which point mice were euthanized, in accordance with institutional policy. Tumor diameters were measured 3 times per week with calipers, and tumor volumes were calculated as follows: Tumor volume=0.5×[(large diameter)×(small diameter)^2].
6-8-week-old C57BL/6 mice were injected with 1×10^5 B16F10 murine melanoma cells murine subcutaneously on the left flank. Once tumors become palpable (approximately 5 days), mice were randomly allocated to receive treatment with either: 20% PEG-400 in 5% sucrose (vehicle for disclosed HIF-2α stabilizer) and PBS (vehicle for GM-CSF), 20% PEG-400 and GM-CSF (100 ng per mouse in a 50 μL volume), disclosed HIF-2α stabilizer (17.5 mg/kg mouse weight in a 100 μL volume) and PBS, or the disclosed HIF-2α stabilizer and GM-CSF (same concentrations). The disclosed HIF-2α stabilizer (or the vehicle control) was administered intraperitoneally, while GM-CSF (or the vehicle control) was administered intratumorally. Mice were treated […] 3 times per week until tumors reached a size of 20 mm in any dimension (approximately 2.5 weeks), at which point mice were be euthanized, in accordance with institutional policy. Tumor diameters were measured 3 times per week with calipers, and tumor volumes will be calculated as follows: Tumor volume=0.5×[(large diameter)×(small diameter)^2]. For experiments analyzing the effect of neutralizing sVEGFR-1 in combination with disclosed HIF-2α stabilizer treatment, mice were treated intraperitoneally 3×/week with either disclosed HIF-2α stabilizer or vehicle control, and intratumorally with either 4 μg anti-VEGFR-1 neutralizing antibody (R&D Systems) or 4 μg polyclonal goat IgG isotype control (Santa Cruz Biotechnology) in a 50 μL volume. All protocols were approved by the Ohio State University Animal Care and Use Committee, and mice were treated in accordance with institutional guidelines for animal care.
The ANOVA test was used to compare independent measurements between multiple treatment groups. The data was log-transformed to normalize the variance across groups. P-values were adjusted using the Holm's procedure to conserve the type I error at 0.05 due to the multiple comparisons. For tumor growth data, changes in tumor volume over time were assessed via a longitudinal model. Tumor values were log-transformed, and estimated slopes (changes in tumor volume over time) were calculated with 95% confidence intervals. Estimated differences in tumor volume were calculated by a random-effects regression of the longitudinal data. For all analyses, p≦0.05 was considered statistically significant.
To confirm that the modulation of tumor growth and angiogenesis was due to sVEGFR-1 production in response to the disclosed HIF-2α stabilizer, mice were treated with the disclosed HIF-2α stabilizer in the presence or absence of an sVEGFR-1 neutralizing Ab.
6-8-week-old C57BL/6 mice or SCID mice were injected with 1×10^5 B16F10 murine melanoma cells or 1×10^6 A375 human melanoma cells, respectively, subcutaneously on the left flank. […]

O=C(O)CNC(=O)c1ncc(-c2cccc(F)c2)cc1O [disclosed HIF-2α stabilizer, {[5-(3-Fluorophenyl)-3-hydroxypyridine-2-carbonyl]amino}acetic acid]
tumor growth (tumor volume) (FIG. 3, stabilizer 17 mg/kg I.P., GM-CSF 100 ng per mouse I.T., 3 times per week, vs. PBS control): reduces tumor growth
increase in median survival (FIG. 12B, median survival defined as the time to a tumor diameter of 20 mm, 17.5 mg/kg intraperitoneal 3x/week, p=0.023): 3 days
average tumor volumes vs. vehicle controls (day 16 of treatment, GM-CSF 100 ng/mouse intratumoral or stabilizer 17.5 mg/kg intraperitoneal, 3x/week, each p<0.001): significantly smaller
tumor growth (mice also treated with the anti-sVEGFR-1 neutralizing antibody, p=0.245): no effect on tumor growth
tumor growth (mice treated with an isotype control antibody, p<0.001): decreased tumor growth
